Assay results: patent publication EP4603105A1, “PHARMACEUTICAL COMPOSITION CONTAINING CYCLIC COMPOUND HAVING SELECTIVE KRAS INHIBITORY EFFECT AGAINST HRAS AND NRAS” (CHUGAI SEIYAKU KABUSHIKI KAISHA, priority 2022, dated 2024)
Where a SMILES comes first, the peptide text is derived from it. Bridges are numbered along the chain shown (N, C = ends). [ ]: non-standard residue; d: D form. The star is where a group is joined. hPhe(3-Cl-4-CF3) = N[C@@H](CCc1ccc(C(F)(F)F)c(Cl)c1)C(=O)O; NPrPhe(4-CF3) = CCCN[C@@H](Cc1ccc(C(F)(F)F)cc1)C(=O)O; NEtPhe(4-Me) = CCN[C@@H](Cc1ccc(C)cc1)C(=O)O; NMeGly(cPent) = CN[C@H](C(=O)O)C1CCCC1; Hyp = O=C(O)[C@@H]1C[C@@H](O)CN1; NMeD = CN[C@@H](CC(=O)O)C(=O)O; NMeL = CN[C@@H](CC(C)C)C(=O)O; NMeV = CN[C@H](C(=O)O)C(C)C; Morpholide = C1CN(*)CCO1; NAllylGly = C=CCNCC(=O)O; NMeA = CN[C@@H](C)C(=O)O; Ac5c = NC1(C(=O)O)CCCC1; Aze = O=C(O)[C@@H]1CCN1; Ac4c = NC1(C(=O)O)CCC1; Sar = CNCC(=O)O

Columns and labels:
[1] = system: human lung cancer strain NCI-H441; format: cell-based
Summary of the method: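 Readout: […] after the ATP-based reagent. Compound: serial dilutions in dimethyl sulfoxide.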

[2] = molecular target: HRAS wild-type protein (Homo sapiens, UniProt P01112); experiment: Binding to HRAS by surface plasmon resonance (SPR), KD and KD ratio to KRAS
Chain of HRAS wild-type protein (P01112 whole entry): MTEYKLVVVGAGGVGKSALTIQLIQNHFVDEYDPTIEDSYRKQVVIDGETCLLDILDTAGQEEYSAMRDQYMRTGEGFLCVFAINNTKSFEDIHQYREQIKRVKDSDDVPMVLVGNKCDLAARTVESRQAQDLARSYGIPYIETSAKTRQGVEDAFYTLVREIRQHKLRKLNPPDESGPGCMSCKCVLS
Summary of the method: (§1)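 GDP-bound biotin-Avi RAS captured at ~100–300 RU, 30°C, pH 7.4 HBS containing 10 µM GDP, 10 mM MgCl2, 1 mM DTT, 0.01% Tween 20 and 4% DMSO. KD by 1:1 fitting.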

[3] = molecular target: GDP-bound NRAS wild-type protein (Homo sapiens, UniProt P01111); experiment: Binding to NRAS by surface plasmon resonance (SPR), KD and KD ratio to KRAS
Chain of GDP-bound NRAS wild-type protein (P01111 whole entry): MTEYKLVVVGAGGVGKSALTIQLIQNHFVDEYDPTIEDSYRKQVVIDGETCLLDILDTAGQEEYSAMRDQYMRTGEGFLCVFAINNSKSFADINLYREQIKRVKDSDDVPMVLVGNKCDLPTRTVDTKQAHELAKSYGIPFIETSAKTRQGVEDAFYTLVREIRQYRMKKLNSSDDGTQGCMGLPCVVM
Summary of the method: as §1

[4] = ratio of the KD value with respect to HRAS wild-type protein to the KD value with respect to KRAS
[5] = ratio of the KD value with respect to GDP-bound NRAS wild-type protein to the KD value with respect to KRAS
[6] = ratio of KD for HRAS wild-type protein to KD for KRAS
[7] = ratio of KD for GDP-bound NRAS wild-type protein to KD for KRAS

SMILES | IC50 [1] | HRAS /KRAS [2, 4] | NRAS /KRAS [3, 5] | HRAS /KRAS [2, 6] | NRAS /KRAS [3, 7] | HRAS /KRAS ([2]; ratio of KD value for HRAS wild-type protein to KD value for KRAS (SPR)) | NRAS /KRAS ([3]; ratio of KD value for GDP-bound NRAS wild-type protein to KD value for KRAS (SPR))
C=CCN1CC(=O)N(C)CC(=O)N(CCC)[C@@H](Cc2ccc(C(F)(F)F)cc2)C(=O)N(C)CC(=O)N[C@@H](CCc2ccc(C(F)(F)F)c(Cl)c2)C(=O)N2CCC[C@H]2C(=O)NC2(CCCC2)C(=O)N(C)[C@@H](C2CCCC2)C(=O)N(C)[C@H](C(=O)N2CCOCC2)CC(=O)N(C)[C@@H](CC(C)C)C(=O)N[C@@H]([C@@H](C)CC)C1=O [PP0749] ([NMeL]I[NAllylGly][Sar][NPrPhe(4-CF3)][Sar][hPhe(3-Cl-4-CF3)]P[Ac5c][NMeGly(cPent)][NMeD]-Morpholide; lactam N-11) | 19.8 nM | C (A compound having a KD ratio of 0.1 or more and less than 3 is denoted as C) | B (a compound having 3 or more and less than 10 is denoted as B) | – | – | – | –
CCO[C@@H]1C[C@H]2C(=O)NC3(CCC3)C(=O)N(C)[C@@H](C3CCCC3)C(=O)N(C)[C@H](C)CC(=O)N(C)[C@@H](CC)C(=O)N[C@@H]([C@@H](C)CC)C(=O)N(C)CC(=O)N(C)[C@H]3C/C=C\CCN(C3=O)[C@@H](Cc3ccc(C(F)(F)F)cc3)C(=O)N(C)CC(=O)N[C@@H](CCc3cc(F)c(C(F)(F)F)c(F)c3)C(=O)N2C1 [PP1095] | 14.9 nM | – | – | B (a compound having 3 or more and less than 10 is denoted as B) | B (a compound having 3 or more and less than 10 is denoted as B) | – | –
CCCN1C(=O)[C@@H]2CCN2C(=O)CN(C)C(=O)[C@H]([C@@H](C)CC)NC(=O)[C@H](CC(C)C)N(C)C(=O)C[C@@H](C(=O)N(C)C)N(C)C(=O)[C@H](C2CCCC2)N(C)C(=O)C2(CCC2)NC(=O)[C@@H]2C[C@@H](OCC)CN2C(=O)[C@H](CCc2ccc(C(F)(F)F)c(Cl)c2)NC(=O)CN(C)C(=O)[C@@H]1Cc1ccc(C(F)(F)F)cc1 [PP0445] ([NMeL]I[Sar][Aze][NPrPhe(4-CF3)][Sar][hPhe(3-Cl-4-CF3)][Hyp](Et)[Ac4c][NMeGly(cPent)][NMeD]-NMe2; lactam N-11) | 1.7 nM | C (A compound having a KD ratio of 0.1 or more and less than 3 is denoted as C) | C (A compound having a KD ratio of 0.1 or more and less than 3 is denoted as C) | – | – | – | –
CCO[C@@H]1C[C@H]2C(=O)NC3(CC(C)(C)C3)C(=O)N(C)[C@@H](C3CCCC3)C(=O)N(C)[C@H](C(=O)N(C)CC)CC(=O)N(C)[C@H]3CCCC/C=C/c4ccc(cc4)C[C@@H](C(=O)N(C)CC(=O)N[C@@H](CCc4ccc(Cl)c(Cl)c4)C(=O)N2C1)N1CC/C=C\C[C@@H](C1=O)N(C)C(=O)CN(C)C(=O)[C@H]([C@@H](C)CC)NC3=O [PP2592] | 7.9 nM | – | – | A (a compound having 10 or more and less than 20 is denoted as A) | A (a compound having 10 or more and less than 20 is denoted as A) | – | –
CCO[C@@H]1C[C@H]2C(=O)NC3(CC(C)(C)C3)C(=O)N(C)[C@@H](C3CCCC3)C(=O)N(C)[C@H](C(=O)N(C)C)CC(=O)N3CCCCC[C@H]3C(=O)N[C@@H]([C@@H](C)CC)C(=O)N(C)CC(=O)N(C)[C@H]3C/C=C\CCN(C3=O)[C@@H](Cc3ccc(C(F)(F)F)cc3)C(=O)N(C)CC(=O)N[C@@H](CCc3cc(F)c(C(F)(F)F)c(F)c3)C(=O)N2C1 [PP1915] | 18.5 nM | A (a compound having 10 or more and less than 20 is denoted as A) | A (a compound having 10 or more and less than 20 is denoted as A) | – | – | – | –
CCO[C@@H]1C[C@H]2C(=O)NC3(CCC3)C(=O)N(C)[C@@H](C3CCCC3)C(=O)N(C)[C@H](C(=O)N(C)CC)CC(=O)N(C)[C@@H](C(C)C)C(=O)N[C@@H]([C@@H](C)CC)C(=O)N(C)CC(=O)N(C)[C@H]3C/C=C\CCN(C3=O)[C@@H](Cc3ccc(C(F)(F)F)cc3)C(=O)N(C)CC(=O)N[C@@H](CCc3cc(F)c(C(F)(F)F)c(F)c3)C(=O)N2C1 [PP1990] | 6.6 nM | A (a compound having 10 or more and less than 20 is denoted as A) | A (a compound having 10 or more and less than 20 is denoted as A) | – | – | – | –
CCO[C@@H]1C[C@H]2C(=O)NC3(CC(C)(C)C3)C(=O)N(C)[C@@H](C(CC)CC)C(=O)N(C)[C@H](C(=O)N3CCCC3)CC(=O)N(C)[C@@H](COC)C(=O)N[C@@H]([C@@H](C)CC)C(=O)N(C)CC(=O)N(C)[C@H]3C/C=C\CCN(C3=O)[C@@H](Cc3ccc(C)cc3)C(=O)N(C)CC(=O)N[C@@H](CCc3ccc(C(F)(F)F)c(OC)c3)C(=O)N2C1 [PP2167] | 39.1 nM | A (a compound having 10 or more and less than 20 is denoted as A) | AA (a compound having 20 or more is denoted as AA) | – | – | – | –
CC[C@H](C)[C@@H]1NC(=O)[C@@H]2CCCc3ccc(cc3)C[C@@H](C(=O)N(C)CC(=O)N[C@@H](CCc3ccc(C(F)(F)F)c(OC)c3)C(=O)N3C[C@H](OC4CCCC4)C[C@H]3C(=O)NC3(CC(C)(C)C3)C(=O)N(C)[C@@H](C3CCCC3)C(=O)N(C)[C@H](C(=O)N(C)CC)CC(=O)N2C)N2CC/C=C\C[C@@H](C2=O)N(C)C(=O)CN(C)C1=O [PP3086] | 7.9 nM | – | – | B (a compound having 3 or more and less than 10 is denoted as B) | B (a compound having 3 or more and less than 10 is denoted as B) | – | –
CCC[C@H]1C(=O)N[C@@H]([C@@H](C)CC)C(=O)N(C2CC2)CC(=O)N(C)[C@H]2C/C=C\CCN(C2=O)[C@@H](Cc2ccc(C(F)(F)F)cc2)C(=O)N(C)CC(=O)N[C@@H](CCc2cc(F)c(C(F)(F)F)c(F)c2)C(=O)N2C[C@H](OCC)C[C@H]2C(=O)NC2(CC(C)(C)C2)C(=O)N(C)[C@@H](C2CCCC2)C(=O)N(C)[C@H](C(=O)N(C)C)CC(=O)N1C [PP2101] | 16.6 nM | B (a compound having 3 or more and less than 10 is denoted as B) | A (a compound having 10 or more and less than 20 is denoted as A) | – | – | – | –
CC[C@H](C)[C@@H]1NC(=O)[C@H](CC)N(C)C(=O)C[C@@H](C(=O)N(C)CC)N(C)C(=O)[C@H](C2CCCC2)N(C)C(=O)C2(CC(C)(C)C2)NC(=O)[C@@H]2C[C@@H](C)CN2C(=O)[C@H](CCc2ccc(C(F)(F)F)c(OC)c2)NC(=O)CN(C)C(=O)[C@H](Cc2ccc(C)cc2)N2CC/C=C\C[C@@H](C2=O)N(C)C(=O)CN(C)C1=O [PP1870] | 12.4 nM | – | – | – | – | A (a compound having 10 or more and less than 20 is denoted as A) | A (a compound having 10 or more and less than 20 is denoted as A)
CCO[C@@H]1C[C@H]2C(=O)NC3(CCCC3)C(=O)N(C)[C@@H](C3CCCC3)C(=O)N(C)[C@H](C(=O)N(C)C)CC(=O)N(C)[C@@H](CC(C)C)C(=O)N[C@@H]([C@@H](C)CC)C(=O)N(C)CC(=O)N(C)[C@H]3C/C=C\CCN(C3=O)[C@@H](Cc3ccc(C)cc3)C(=O)N(C)CC(=O)N[C@@H](CCc3ccc(C(F)(F)F)c(OC)c3)C(=O)N2C1 [PP2197] | 4.6 nM | B (a compound having 3 or more and less than 10 is denoted as B) | A (a compound having 10 or more and less than 20 is denoted as A) | – | – | – | –
CCO[C@@H]1C[C@H]2C(=O)NC3(CC(C)(C)C3)C(=O)N(C)[C@@H](C(CC)CC)C(=O)N(C)[C@H](C(=O)N(C)C)CC(=O)N(C)[C@@H](CC3CC3)C(=O)N[C@@H]([C@@H](C)CC)C(=O)N(C)CC(=O)N(C)[C@H]3C/C=C\CCN(C3=O)[C@@H](Cc3ccc(C(F)(F)F)cc3)C(=O)N(C)CC(=O)N[C@@H](CCc3ccc(C(F)(F)F)c(Cl)c3)C(=O)N2C1 [PP2124] | 18.7 nM | A (a compound having 10 or more and less than 20 is denoted as A) | AA (a compound having 20 or more is denoted as AA) | – | – | – | –
CC[C@H](C)[C@@H]1NC(=O)[C@H](CC(C)C)N(C)C(=O)C[C@@H](C(=O)N2CCOCC2)N(C)C(=O)[C@H](C(C)C)N(C)C(=O)C2(CCCC2)NC(=O)[C@@H]2CCCN2C(=O)[C@H](CCc2ccc(C(F)(F)F)c(Cl)c2)NC(=O)CN(C)C(=O)[C@H](Cc2ccc(C)cc2)N(CC)C(=O)[C@@H]2CCN2C(=O)[C@H](C)N(C)C1=O [PP0015] ([NMeL]I[NMeA][Aze][NEtPhe(4-Me)][Sar][hPhe(3-Cl-4-CF3)]P[Ac5c][NMeV][NMeD]-Morpholide; lactam N-11) | 24.5 nM | – | – | C (A compound having a KD ratio of 0.1 or more and less than 3 is denoted as C) | C (A compound having a KD ratio of 0.1 or more and less than 3 is denoted as C) | – | –
CCO[C@@H]1C[C@H]2C(=O)NC3(CCC3)C(=O)N(C)[C@@H](C3CCCC3)C(=O)N(CCC3CCC3)[C@H](C(=O)N(C)C)CC(=O)N(C)[C@@H](CC)C(=O)N[C@@H]([C@@H](C)CC)C(=O)N(C)CC(=O)N(C)[C@H]3CCCCCN(C3=O)[C@@H](Cc3ccc(C(F)(F)F)cc3)C(=O)N(C)CC(=O)N[C@@H](CCc3cc(F)c(C(F)(F)F)c(F)c3)C(=O)N2C1 [PP0635] | 85.6 nM | B (a compound having 3 or more and less than 10 is denoted as B) | B (a compound having 3 or more and less than 10 is denoted as B) | – | – | – | –
